This is an account of results in US20220168298A1, “CANCER TREATMENT” (Janssen Pharmaceutica NV, priority 2019, published 2022).

Where [1] appears, read: Regimen 2 6 mg continuous (n = 78).

Molecules are shown by their SMILES. Where two headings read alike, the source gives them in different places.

Experimental: Study treatment is administered on 28-day cycles. Prior to interim analysis 1, there were 2 treatment regimens.
Safety was assessed continuously by the investigator and based on medical review of AE reports and the results of vital sign measurements, physical examinations, clinical laboratory tests, ECOG performance status, and other safety evaluations.
Safety data are presented for the safety population (N=207, enrolled between May 7, 2015, and Dec. 5, 2017), defined as patients who received at least 1 dose of study treatment.
An analysis was done on 99 NCT02365597 patients who received the dose regimen of 8 mg/day continuous (pharmacodynamically guided uptitrated to 9 mg/d per serum phosphate as described herein, Regimen 3) to explore efficacy among high-risk patients. […] High-risk patients are defined as patients meeting one or more of the following criteria: • age ≥75 years; • ECOG PS 2 (Eastern Cooperative Oncology Group Performance Status 2; Oken M, Creech R, Tormey D, et al. Toxicity and response criteria of the Eastern Cooperative Oncology Group. Am J Clin Oncol. 1982; 5:649-655) • hemoglobin <10 g/dL; • visceral metastases of the liver, lung and/or bone; • 2 or 3 Bellmunt risk factors (Bellmunt J, Choueiri T K, Fougeray R, et al: Prognostic factors in patients with advanced transitional cell carcinoma of the urothelial tract experiencing treatment failure with platinum-containing regimens.
Final analysis for NCT02365597 was conducted, per protocol 12 months after the last subject was enrolled.

Take `COc1cc(OC)cc(N(CCNC(C)C)c2ccc3ncc(-c4cnn(C)c4)nc3c2)c1` [erdafitinib, N-(3,5-dimethoxyphenyl)-N′-(1-methylethyl)-N-[3-(1-methyl-1H-pyrazol-4-yl)quinoxalin-6-yl]ethane-1,2-diamine]: under setting [1], the “TRAE Nail dystrophy, Grade ≥3” value is listed as 0 n; the “TRAE Palmar-plantar erythrodysaesthesia syndrome, Grade ≥3” value was determined as 0 n; the “TRAE Paronychia, Grade ≥3” value is on record as 0 n. Besides, the treatment-related deaths result (across all dose regimens (N = 207)) is reported as “no treatment-related deaths”. Also, the treatment-related deaths entry (final analysis, 101 patients) is “no treatment-related deaths”. Where the note is “human, in vivo”, the “CSR events resolved on the data cut-off date” value was determined as 63%; the “CSR events resolved on the data cut-off date, n/N” value was 17/27; the “CSR events that were Grade 1 or 2” value came to 85%; the “CSR events that were Grade 1 or 2, n/N” value was 23/27. Besides, where the note is “human, in vivo”, the “Treatment discontinuation rates for adverse events” value is given as “approximately 20%”, the “dosage discontinued for CSR” value was 3 patients, the “dosage interrupted for CSR” value stood at 8 patients and the “dosage reduced for CSR” value was determined as 13 patients. Moreover, where the note is “human, in vivo”, the “grade 3/4 serious adverse events proportions by subgroup, range” value is recorded as 26.7-36.4%; the “ongoing CSR events that were Grade 1” value came to 60%; the “ongoing CSR events that were Grade 1, n/N” value is given as 6/10; the patients reporting retinopathy is recorded as 2 patients. Moreover, under “human, in vivo”, the “patients reporting retinopathy, grade 2” value is 1 n; the “patients reporting retinopathy, grade 3” value is 1 n; the “patients with Central serous retinopathy (CSR) events” value was 27%; the “patients with Central serous retinopathy (CSR) events, n/N” value is on record as 27/101.
